≈ marks a conversion by molar mass, not a printed value. Structures can show the parent of a compound that is named as a salt.
What was measured:
Type in all cases: cell-based
[1] = test system: Pseudomonas aeruginosa BA 2 Leo strain; assay: Antibacterial activity, 50% inhibition of growth, Pseudomonas aeruginosa BA 2 Leo strain; conditions: BA2LEOSTRAIN, read-out: IC50 (concentration required for a 50% inhibition of growth)
Source text: (§1) In the table below the antibacterial activity of the compound of Example 1, the 6-[4'-(3"-aminopropyl)-1'-piperidyl-methyleneamino]penicillanic acid hydrochloride, in the table called EB 686, is compared to that of the known compounds Ampicillin and Mecillinam (a compound of the above mentioned British Pat. No. 1,293,590).
(§2) *IC50 means the concentration required for a 50% inhibition of […]

[2] = test system: Pseudomonas aeruginosa PS 18s; assay: Antibacterial activity, 50% inhibition of growth, Pseudomonas aeruginosa PS 18s; conditions: PS18S, read-out: IC50 (concentration required for a 50% inhibition of growth)
Source text: as §1, §2

E.coli HA 2 Leo strain = assay: Antibacterial activity, 50% inhibition of growth, E.coli HA 2 Leo strain; conditions: Escherichia coli, HA2LEOSTRAIN, read-out: IC50 (concentration required for a 50% inhibition of growth)
Source text: as §1, §2

E.coli W3110 (RTEM) = assay: Antibacterial activity, 50% inhibition of growth, E.coli W3110 (RTEM); conditions: Escherichia coli, read-out: IC50 (concentration required for a 50% inhibition of growth)
Source text: as §1, §2

[3] = test system: Klebsiella pneumoniae AT CC 10273; assay: Antibacterial activity, 50% inhibition of growth, Klebsiella pneumoniae AT CC 10273; conditions: ATCC10273, read-out: IC50 (concentration required for a 50% inhibition of growth)
Source text: as §1, §2

[4] = test system: Enterobacter cloacae P 99; assay: Antibacterial activity, 50% inhibition of growth, Enterobacter cloacae P 99; conditions: P99, read-out: IC50 (concentration required for a 50% inhibition of growth)
Source text: as §1, §2

[5] = test system: Salmonella typhimurium NCTC 5710; assay: Antibacterial activity, 50% inhibition of growth, Salmonella typhimurium NCTC 5710; conditions: Salmonella enterica, read-out: IC50 (concentration required for a 50% inhibition of growth)
Source text: as §1, §2

[6] = test system: Salmonella cholerasuis NCTC 5735; assay: Antibacterial activity, 50% inhibition of growth, Salmonella cholerasuis NCTC 5735; conditions: NCTC5735, read-out: IC50 (concentration required for a 50% inhibition of growth)
Source text: as §1, §2

CC1(C)S[C@@H]2[C@H](NC(=O)[C@H](N)c3ccccc3)C(=O)N2[C@H]1C(=O)O [Ampicillin]
IC50 [1]: > 100 µg/mL
IC50 [2]: 50 µg/mL (≈ 143 µM)
IC50 (E.coli HA 2 Leo strain): 1.3 µg/mL (≈ 3.72 µM)
IC50 (E.coli W3110 (RTEM)): > 100 µg/mL
IC50 [3]: 79 µg/mL (≈ 226 µM)
IC50 [4]: > 100 µg/mL
IC50 [5]: 0.4 µg/mL (≈ 1.14 µM)
IC50 [6]: 0.25 µg/mL (≈ 0.715 µM)

CC1(C)S[C@@H]2[C@H](N=CN3CCC(CCCN)CC3)C(=O)N2[C@H]1C(=O)O [EB 686, 6-[4'-(3"-aminopropyl)-1'-piperidyl-methyleneamino]-penicillanic acid monohydrochloride]
IC50 [1]: 16 µg/mL
IC50 [2]: 5 µg/mL
IC50 (E.coli HA 2 Leo strain): 0.016 µg/mL
IC50 (E.coli W3110 (RTEM)): 0.5 µg/mL
IC50 [3]: 0.04 µg/mL
IC50 [4]: 0.02 µg/mL
IC50 [5]: 0.016 µg/mL
IC50 [6]: 0.0063 µg/mL

CC1(C)S[C@@H]2[C@H](N=CN3CCC(CCCN=[N+]=[N-])CC3)C(=O)N2[C@H]1C(=O)O [Example 1D, 6-[4'-(3"-azidopropyl)-1'-piperidyl-methyleneamino]-penicillanic acid]
IC50 (E.coli HA 2 Leo strain): 0.04 µg/mL (≈ 0.101 µM)
IC50 [5]: 0.5 µg/mL (≈ 1.27 µM)

CC1(C)S[C@@H]2[C@H](N=CN3CCC(CN=[N+]=[N-])CC3)C(=O)N2[C@H]1C(=O)O [Example 2D, 6-[4'-azidomethyl-1'-piperidyl-methyleneamino]-penicillanic acid]
IC50 (E.coli HA 2 Leo strain): 0.05 µg/mL (≈ 0.136 µM)
IC50 [5]: 0.2 µg/mL (≈ 0.546 µM)

CC(C)(C)C(=O)OCOC(=O)[C@@H]1N2C(=O)[C@@H](N=CN3CCCC(C(CN)CN)CC3)[C@H]2SC1(C)C (stereo partly shown) [Example 28F, Pivaloyloxymethyl 6-[(4'-(1",3"-diaminopropyl-2")-hexahydro-1'H-azepin-1'-yl)-methyleneamino]-penicillanate, trihydrochloride]
IC50 [1]: 20 µg/mL
IC50 (E.coli HA 2 Leo strain): 0.05 µg/mL
IC50 [5]: 0.05 µg/mL

CC1(C)S[C@@H]2[C@H](/N=C/N3CCCCCC3)C(=O)N2[C@H]1C(=O)O [Mecillinam]
IC50 [1]: > 100 µg/mL
IC50 [2]: > 100 µg/mL
IC50 (E.coli HA 2 Leo strain): 0.016 µg/mL (≈ 0.0492 µM)
IC50 (E.coli W3110 (RTEM)): 2 µg/mL (≈ 6.15 µM)
IC50 [3]: ~1 µg/mL (≈ 3.07 µM)
IC50 [4]: 0.1 µg/mL (≈ 0.307 µM)
IC50 [5]: 0.05 µg/mL (≈ 0.154 µM)
IC50 [6]: 0.05 µg/mL (≈ 0.154 µM)

From patent US4229443A, “Derivatives of penicillanic acid” (Leo Pharmaceutical Products, Ltd. A/S, priority 1976, dated 1980)
